Experiments:
Test in all cases: relative viability (nuclei count vs DMSO), 5 days (fraction); higher = more cells survive
[1] = compound: CO[C@@H]1[C@H](N(C)C(=O)c2ccccc2)C[C@H]2O[C@]1(C)n1c3ccccc3c3c4c(c5c6ccccc6n2c5c31)C(=O)NC4 [Midostaurin] + CCNC(=O)c1noc(-c2cc(C(C)C)c(O)cc2O)c1-c1ccc(CN2CCOCC2)cc1 [Luminespib] (partner 0.01 µM)
In short: (§1)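 Lung cancer cell lines in 1536-well plates were dosed by pin tool the day after seeding, either with one drug alone or with a fixed anchor-drug dose plus five library-drug doses (not always all listed) in √10 steps. After 5 days, cells were fixed and their nuclei stained in one step (final 0.05% Triton X-100, 1% formaldehyde, 1 ug/ml Hoechst), then counted on 4× images. Relative viability is the nuclei count in treated wells divided by that in vehicle wells. Values are medians of duplicate plates.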

[2] = compound: COc1cc(-c2nn([C@H]3CC[C@H](N4CCN(C(C)=O)CC4)CC3)c3ncnc(N)c23)ccc1NC(=O)c1cc2ccccc2n1C + Cc1nc(NC(=O)N2CCC[C@H]2C(N)=O)sc1-c1ccnc(C(C)(C)C(F)(F)F)c1 [Alpelisib] (partner 2 µM)
In short: as §1

[3] = compound: COc1cc(-c2nn([C@H]3CC[C@H](N4CCN(C(C)=O)CC4)CC3)c3ncnc(N)c23)ccc1NC(=O)c1cc2ccccc2n1C + O=C(c1cc(Cc2n[nH]c(=O)c3ccccc23)ccc1F)N1CCN(C(=O)C2CC2)CC1 [Olaparib] (partner 8 µM)
In short: as §1

[4] = compound: COc1cc(-c2nn([C@H]3CC[C@H](N4CCN(C(C)=O)CC4)CC3)c3ncnc(N)c23)ccc1NC(=O)c1cc2ccccc2n1C + Cc1cc(Nc2cc(N3CCN(C)CC3)nc(Sc3ccc(NC(=O)C4CC4)cc3)n2)n[nH]1 [Tozasertib] (partner 0.1 µM)
In short: as §1

[5] = compound: COc1cc(-c2nn([C@H]3CC[C@H](N4CCN(C(C)=O)CC4)CC3)c3ncnc(N)c23)ccc1NC(=O)c1cc2ccccc2n1C + COc1cccc2cc(-c3nc([C@H]4CC[C@H](C(=O)O)CC4)n4ncnc(N)c34)[nH]c12 [OSI-027] (partner 0.5 µM)
In short: as §1

Cell Line | relative viability ([1]; first compound 0.01 µM) | relative viability ([1]; first compound 0.03162 µM) | relative viability ([1]; first compound 0.1 µM) | relative viability ([1]; first compound 0.3162 µM) | relative viability ([2]; first compound 0.0128 µM) | relative viability ([2]; first compound 0.04048 µM) | relative viability ([2]; first compound 0.128 µM) | relative viability ([2]; first compound 1.28 µM) | relative viability ([3]; first compound 0.0128 µM) | relative viability ([3]; first compound 0.04048 µM) | relative viability ([3]; first compound 0.128 µM) | relative viability ([3]; first compound 1.28 µM) | relative viability ([4]; first compound 0.0128 µM) | relative viability ([4]; first compound 0.04048 µM) | relative viability ([4]; first compound 0.128 µM) | relative viability ([4]; first compound 1.28 µM) | relative viability ([5]; first compound 0.0128 µM) | relative viability ([5]; first compound 0.04048 µM) | relative viability ([5]; first compound 0.128 µM) | relative viability ([5]; first compound 1.28 µM)
LK-2 | 0.191 | 0.221 | 0.187 | 0.199 | 0.91 | 1.26 | 1.07 | 0.789 | 0.779 | 0.674 | 0.6 | 0.385 | 0.195 | 0.155 | 0.184 | 0.165 | 0.267 | 0.187 | 0.198 | 0.184
NCI-H522 | 1.07 | 1.51 | 1.26 | 1.21 | – | – | – | – | 0.558 | 0.593 | 0.617 | 0.522 | 0.614 | 0.59 | 0.566 | 0.445 | 0.8 | 0.725 | 0.812 | 0.651
NCI-H1299 | – | – | – | – | 1.1 | 1.11 | 1.06 | 1.08 | 0.978 | 1.01 | 0.914 | 1.01 | – | – | – | – | – | – | – | –
NCI-H1563 | 0.505 | 0.515 | 0.501 | 0.492 | 0.876 | 0.918 | 0.998 | 0.865 | – | – | – | – | – | – | – | – | 0.711 | 0.86 | 0.848 | 0.59
NCI-H1623 | 0.526 | 0.647 | 0.513 | 0.632 | – | – | – | – | – | – | – | – | 0.449 | 0.419 | 0.424 | 0.41 | 0.422 | 0.342 | 0.399 | 0.37
NCI-H1648 | – | – | – | – | – | – | – | – | 0.94 | 0.928 | 1.23 | 0.515 | 0.381 | 0.514 | 0.469 | 0.3 | 0.27 | 0.257 | 0.274 | 0.276
